The source of these data is patent publication US12583868B2, “JAK inhibitors and methods for synthesizing and using thereof” (GALDERMA HOLDING SA, priority 2020, dated 2026).

Molecules are shown by their SMILES. Where two headings read alike, the source gives them in different places.

One data set concerns the target T1, CYP3A4 (Homo sapiens, UniProt P08684).
T1 construct: Human pooled liver microsomes of mixed gender (mainly Caucasian); from tissue; host or cells: pooled human liver microsomes
Nature of the data set: CYP3A inhibition in human liver microsomes. To be noted: testosterone, CRL data, read-out: IC50 CYP3A4 testo. Format: in vitro ADME. For orientation: Liver microsomes are vesicles of endoplasmic reticulum, rich in cytochrome P450 enzymes.

A further data set concerns the target T2, Recombinant JAK1 (Homo sapiens, UniProt P23458).
T2 construct: purchased Life Technologies PV4775
In words: In vitro enzyme assay (Cisbio kinase assay), JAK1. Format: biochemical. To be noted: ATP 300 μM; read-out: Enzymatic assay: IC50 JAK1.

Data set [1] can be described thus: Systemic level in PD/IL6 mouse topical dose response. It is filed as in vivo, BALB/c ByJ Rj mice. The conditions noted are these: topical 10 mM. As for the experimental part:
Skin samples were harvested 15 min.

Data set [2] can be described thus: In vivo pharmacokinetic analysis in minipig (iv). Further details: species or system male Göttingen minipigs. The conditions noted are these: iv 1 mg/kg. As for the experimental part:
Three male Göttingen minipigs. Compound was administered intravenously to fed animals at a target dose of 1 mg/kg, dose volume 1 mL/kg, in DMSO: hydroxypropyl-p-cyclodextrin 20% in phosphate buffer 60 mM pH 7 (5:95). Blood samples were collected at various time points. Blood samples were then assayed using a method based upon protein precipitation with acetonitrile followed by LC/MS/MS analysis. Non-compartmental methods were used for pharmacokinetic analysis of blood concentration versus time data.

A short description of another data set: iv PK mice. The conditions noted are these: female, mouse, in vivo. An excerpt:
Other studies including, but not limited to, CaCO2 permeability, metabolite profiling in human microsomes (Syneos 7007703.SA.186) and in human hepatocytes (Syneos 7007703.SA.185), metabolite M3b structural elucidation (Syneos 7007703.SA.186), mouse iv female (ODS CFH-1798), mouse iv+ABT females (ODS CFH 1799), mouse topical d1,d10 (ODS Study Number: NBK39-32, 12 Sep. 2019, ELN Bioanalysis study: NBK156-79), rat iv (Pharmaron PH-DMPK-GAL-20-002), dog topical d1, d10 (CRL FY19.085) and minipig topical PK dl, d7 (Pharmaron 92404-19-914) are also conducted using the standard protocols known in the art.

Data set [3] is described as follows: In vivo pharmacokinetic analysis in rat (iv). Further details: species or system male Wistar Han rat. To be noted: iv 1 mg/kg. How it is done: One male Wistar Han rat. Compound was administered intravenously to fed animal at a target dose of 1 mg/kg, dose volume: 2 mL/kg, in DMSO/hydroxypropyl-beta-cyclodextrin 20% in phosphate buffer 60 mM pH 7 (5:95). Blood samples were collected at various time points. Blood samples were then assayed using a method based upon protein precipitation with acetonitrile followed by LC/MS/MS analysis. Non-compartmental methods were used for pharmacokinetic analysis of blood concentration versus time data

The next data set has as its target T3, CYP2D6 (Homo sapiens, UniProt P10635).
T3 construct: Human pooled liver microsomes of mixed gender (mainly Caucasian); from tissue; host or cells: pooled human liver microsomes
In words: CYP2D6 inhibition in human liver microsomes. To be noted: dextromethorphan, CRL data. It is filed as in vitro ADME. As for the experimental part: After 5 min at 37° C. incubations were started with NADPH and prolonged for 10 min. The test compound was tested up to 30 μM keeping the final concentration of organic solvent was below 0.5%. The final concentration of microsomes was 0.1 mg/ml to ensure linearity during the time of the incubation. The reaction was quenched by adding 3 volume of acetonitrile. After centrifugation the supernatant was analyzed by HPLC/MS/MS for the formation of des-methyldextromethorphane selectively produced by CYP2D6 and 1′hydroxymidazolam or 6p-hydroxytestosterone, selectively produced by CYP3A. IC50 was calculated with Graphpad Prism v.7 comparing the amount of metabolite produced in presence of the test compound with that produced in absence of test item.

A further data set concerns the target T4, Tyk2 enzyme (Homo sapiens, UniProt P29597).
T4 construct: purchased Life Technologies PR8440C
Nature of the data set: In vitro enzyme assay (Cisbio kinase assay), Tyk2. Format: biochemical. To be noted: ATP 300 μM; read-out: Enzymatic assay: Tyk2.

A further data set has as its system kinase panel (403). In words: Kinase selectivity S35 / S1 at 10 μM. It is filed as binding.
Data set [4] concerns IL-6 induced pSTAT3 in TF-1 cells. Nature of the data set: In vitro cellular pSTAT3 assay, IL-6 stimulated TF-1 cells. It is filed as cell-based. To be noted: Homo sapiens. As for the experimental part:
. The flasks were incubated overnight at 37° C., 5% CO2 then seeded in 96 well plates (TPP) at 150000 cells/well in 25 μL. Cells were treated with 5 IL/well of serially diluted compounds in DMSO (final DMSO concentration of 0.1%) and incubated for 30 min at 37° C. IL-6 (6 IL/well, 100 ng/ml as a final concentration in Opti-MEM, Thermofisher, PHC0066) was added to the cell plates and followed by a 30-min incubation at 37° C. Next, cells were lysed by adding 12 μl/well of 4× supplemented lysis buffer, incubated at 4° C. for 30 min under agitation. The samples were processed for the pSTAT3 detection as described by the manufacturer (MSD) with 25 μl of non-diluted cell lysates tested. Compounds were tested in simplicates over 10 three-step dilutions in order to determine their IC50 values.

A further data set has as its system IL6. Nature of the data set: hWB assay, IL6. It is filed as cell-based, h.
A short description of data set [5]: Intrinsic clearance in hepatocytes, minipig. It is filed as in vitro ADME, male Göttingen minipig. To be noted: 2.5 μM. How it is done: The intrinsic clearance was assessed in cryopreserved Hepatocytes obtained by Human livers donors of mix gender pooled together, male balb-c mouse, male Wistar Han rats and male Göttingen minipig, by looking at the parent compound disappearance. The incubations were performed using a final concentration of viable cells of 1 million/ml (viability above 70%) and test item of 2.5 μM. Incubations were followed up to 2 h. Aliquotes were withdrawn at different time points and reaction quenched with acetonitrile. After centrifugation the supernatant was analyzed by HPLC/MS to quantify the remaining amount of parent in comparison with time 0. The clearance was calculated by fitting the log of the percentage remaining with Graphpad Prism ver.7.

T3 sequence (P10635 whole entry): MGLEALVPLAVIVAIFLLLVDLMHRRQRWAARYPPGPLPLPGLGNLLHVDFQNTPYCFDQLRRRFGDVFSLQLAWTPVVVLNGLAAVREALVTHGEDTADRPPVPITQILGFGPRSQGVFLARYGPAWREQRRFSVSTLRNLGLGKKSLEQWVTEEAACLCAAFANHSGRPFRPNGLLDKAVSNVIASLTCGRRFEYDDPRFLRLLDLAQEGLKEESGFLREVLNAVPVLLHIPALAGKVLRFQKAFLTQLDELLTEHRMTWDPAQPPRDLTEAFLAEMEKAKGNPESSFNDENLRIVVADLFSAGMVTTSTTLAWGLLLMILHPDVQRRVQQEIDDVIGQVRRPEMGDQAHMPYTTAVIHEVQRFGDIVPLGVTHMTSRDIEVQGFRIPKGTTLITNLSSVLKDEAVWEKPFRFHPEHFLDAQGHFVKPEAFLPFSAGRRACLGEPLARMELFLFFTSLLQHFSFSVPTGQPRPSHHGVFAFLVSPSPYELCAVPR
T1 sequence (P08684 2-503): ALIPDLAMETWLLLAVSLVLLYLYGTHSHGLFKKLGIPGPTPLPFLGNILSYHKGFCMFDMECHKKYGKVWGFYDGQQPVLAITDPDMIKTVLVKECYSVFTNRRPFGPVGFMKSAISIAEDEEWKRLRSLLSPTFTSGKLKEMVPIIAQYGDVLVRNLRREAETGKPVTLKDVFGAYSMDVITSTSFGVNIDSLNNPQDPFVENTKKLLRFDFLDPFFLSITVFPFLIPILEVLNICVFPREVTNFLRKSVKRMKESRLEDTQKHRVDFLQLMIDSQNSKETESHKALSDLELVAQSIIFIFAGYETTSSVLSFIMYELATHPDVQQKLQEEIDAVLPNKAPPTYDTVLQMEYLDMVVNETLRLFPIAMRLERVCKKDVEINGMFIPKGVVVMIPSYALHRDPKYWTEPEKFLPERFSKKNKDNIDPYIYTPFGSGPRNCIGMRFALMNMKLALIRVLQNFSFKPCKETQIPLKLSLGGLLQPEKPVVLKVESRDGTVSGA
T4 sequence (P29597 whole entry): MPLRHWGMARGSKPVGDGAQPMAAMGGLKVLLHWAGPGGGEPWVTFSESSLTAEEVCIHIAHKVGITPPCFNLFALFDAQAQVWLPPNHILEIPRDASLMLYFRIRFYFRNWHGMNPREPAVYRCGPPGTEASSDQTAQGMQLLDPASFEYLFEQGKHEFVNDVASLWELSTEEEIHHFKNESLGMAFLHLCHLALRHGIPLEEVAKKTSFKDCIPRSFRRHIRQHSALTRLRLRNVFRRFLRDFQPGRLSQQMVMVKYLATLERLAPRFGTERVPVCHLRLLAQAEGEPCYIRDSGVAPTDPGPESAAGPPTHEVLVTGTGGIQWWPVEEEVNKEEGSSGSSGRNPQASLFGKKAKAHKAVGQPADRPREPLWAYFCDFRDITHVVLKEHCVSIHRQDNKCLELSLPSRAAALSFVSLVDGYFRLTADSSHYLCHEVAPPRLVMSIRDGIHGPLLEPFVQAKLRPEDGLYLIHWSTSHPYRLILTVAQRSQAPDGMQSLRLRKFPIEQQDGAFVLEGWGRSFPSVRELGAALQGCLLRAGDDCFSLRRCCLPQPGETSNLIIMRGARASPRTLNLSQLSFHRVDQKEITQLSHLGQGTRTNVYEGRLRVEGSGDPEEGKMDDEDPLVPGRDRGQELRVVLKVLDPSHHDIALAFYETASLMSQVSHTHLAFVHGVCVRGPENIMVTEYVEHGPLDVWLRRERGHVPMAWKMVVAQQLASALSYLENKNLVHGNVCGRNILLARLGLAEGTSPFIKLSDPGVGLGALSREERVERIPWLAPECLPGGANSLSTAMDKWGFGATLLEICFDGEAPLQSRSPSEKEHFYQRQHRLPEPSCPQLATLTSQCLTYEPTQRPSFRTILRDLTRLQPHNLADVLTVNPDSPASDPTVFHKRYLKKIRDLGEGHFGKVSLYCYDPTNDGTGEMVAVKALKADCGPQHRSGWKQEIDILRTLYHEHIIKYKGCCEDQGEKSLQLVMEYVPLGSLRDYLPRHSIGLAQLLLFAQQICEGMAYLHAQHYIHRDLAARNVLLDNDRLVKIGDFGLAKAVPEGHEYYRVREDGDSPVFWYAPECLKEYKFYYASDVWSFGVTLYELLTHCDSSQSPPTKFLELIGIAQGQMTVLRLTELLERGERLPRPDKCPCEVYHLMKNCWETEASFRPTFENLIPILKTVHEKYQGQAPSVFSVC
T2 sequence (P23458 whole entry): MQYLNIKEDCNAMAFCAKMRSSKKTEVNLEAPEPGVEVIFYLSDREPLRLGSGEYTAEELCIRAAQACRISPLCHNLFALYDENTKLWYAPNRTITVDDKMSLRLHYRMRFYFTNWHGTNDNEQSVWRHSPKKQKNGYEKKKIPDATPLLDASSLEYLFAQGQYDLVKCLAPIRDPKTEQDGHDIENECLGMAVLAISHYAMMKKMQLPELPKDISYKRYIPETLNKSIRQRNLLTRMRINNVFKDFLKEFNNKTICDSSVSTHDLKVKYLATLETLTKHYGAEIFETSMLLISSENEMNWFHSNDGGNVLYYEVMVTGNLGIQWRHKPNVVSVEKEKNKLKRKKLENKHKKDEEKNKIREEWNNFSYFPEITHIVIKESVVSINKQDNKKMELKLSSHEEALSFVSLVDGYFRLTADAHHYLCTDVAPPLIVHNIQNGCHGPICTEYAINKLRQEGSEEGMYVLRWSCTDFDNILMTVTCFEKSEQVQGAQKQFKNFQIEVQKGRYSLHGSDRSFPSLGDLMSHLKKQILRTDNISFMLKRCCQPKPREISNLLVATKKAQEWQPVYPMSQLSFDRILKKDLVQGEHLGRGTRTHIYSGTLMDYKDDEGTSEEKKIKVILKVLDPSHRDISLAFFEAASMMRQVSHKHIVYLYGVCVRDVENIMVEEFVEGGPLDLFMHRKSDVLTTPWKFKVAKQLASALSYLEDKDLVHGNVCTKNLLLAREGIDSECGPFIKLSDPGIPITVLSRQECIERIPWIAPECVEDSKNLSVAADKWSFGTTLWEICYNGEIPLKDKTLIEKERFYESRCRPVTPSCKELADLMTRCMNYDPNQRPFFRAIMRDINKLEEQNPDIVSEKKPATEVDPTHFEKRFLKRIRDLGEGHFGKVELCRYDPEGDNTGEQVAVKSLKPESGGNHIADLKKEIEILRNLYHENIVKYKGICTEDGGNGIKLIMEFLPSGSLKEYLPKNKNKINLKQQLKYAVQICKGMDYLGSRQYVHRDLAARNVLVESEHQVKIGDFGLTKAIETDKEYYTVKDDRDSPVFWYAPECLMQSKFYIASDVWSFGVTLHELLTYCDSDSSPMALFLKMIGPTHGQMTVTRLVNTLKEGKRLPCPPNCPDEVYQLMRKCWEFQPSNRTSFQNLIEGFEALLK

Turning to `O=S(=O)(N[C@H]1C[C@@H](N2CCOc3cnc4[nH]ccc4c32)C1)C1CN(C2CC2)C1` [Compound E, 1-Cyclopropyl-N-((cis)-3-(2,3-dihydropyrrolo[3′,2′:5,6]pyrido[3,4-b][1,4]oxazin-1(7H)-yl)cyclobutyl)azetidine-3-sulfonamide], the IC50 came to 5 µM on CYP3A4; 0.009 µM on Recombinant JAK1; 20 µM against CYP2D6; 3.45 µM at Tyk2 enzyme; 0.043 µM in data set [4] (TF-1, cellular assay IL6, read-out: Free IC50); 0.0099 µM in [4] (TF-1 cells, IL-6 100 ng/ml, read-out: Cellular Assay: IC50 IL6). In the data set on IL6, this compound registered an IC50 of 1.6 µM. Besides, the “PD/IL6 mouse top DR 0.01-10 mM (PG/Acetone/Transcutol): Systemic level @10 mM - 2 hrs” value in data set [1] is 185 nM. In addition, the “iv PK minipig: ER” value in data set [2] is on record as 171%. The clearance in data set [2] (male, Göttingen, whole blood, read-out: iv PK minipig: Cl) came out at 48 mL/min/kg; in “iv PK mice” (read-out: iv PK mice: Cl) it was 140 mL/min/kg; in data set [3] (male, Wistar Han, whole blood, read-out: iv PK rat: Cl), 52 mL/min/kg. For the same compound, the Vd (as a rule, a proportionality between amount in the body and measured concentration, not a real space) in “iv PK mice” turned out to be 2.6 L/kg; in [3] (male, Wistar Han, whole blood, read-out: iv PK rat: Vd), 1.8 L/kg. The half-life in “iv PK mice” (read-out: iv PK mice: t½) is 26.4 min; in data set [3] (male, Wistar Han, whole blood, read-out: iv PK rat: t½ (converted)), 23.4 min. The “iv PK rat: ER” value in [3] came out at 67%. Also, the “Selectivity (S1): number of kinases out of panel” value in the data set with kinase panel (403) is listed as 1/403. The “Intr. Clear. minipig heps” value in data set [5] is recorded as 44 microL/min/10 6 cells.
